Tests used:
[1] = system: nanotube-mediated mitochondria transfer; conditions: Nature Nanotechnology (2022) 17, 98-106; cited from earlier work
[2] = system: mouse Mito-DsRed BMSCs or CD8+ T cells; assay: Inhibitor drug treatment study, mouse co-culture; format: cell-based; conditions: 1-10 μM, data not shown
Procedure: (§1) For pharmacological inhibition studies, both mouse and human Mito-DsRed BMSCs or CD8+ T cells were treated with 1-10 μM of farnesyltransferase/geranylgeranyltransferase 1 inhibitor (L-778123) (Biomol) incubated separately in their respective basal media for 7 hrs before or during co-culture. Cell viability of the different drug treatments was determined using the Trypan Blue exclusion test and quantified manually using a hemacytometer. All experiments were performed on at least 3-6 biological replicates/donors per condition.

[3] = system: human Mito-DsRed BMSCs or CD8+ T cells; assay: Inhibitor drug treatment study, human co-culture; format: cell-based; conditions: 1-10 μM, data not shown
Procedure: as §1

N#Cc1ccc(Cn2cncc2CN2CCN(c3cccc(Cl)c3)C(=O)C2)cc1 [L-788,123]
nanotube-mediated mitochondria transfer [1]: partially block | mitochondrial transfer in co-culture [2]: confirmed that TNTs is a primary mediator of mitochondrial transfer | mitochondrial transfer in co-culture [3]: confirmed that TNTs is a primary mediator of mitochondrial transfer
